Measurements from patent US20160331662A1, “Compositions that Inhibit and Prevent the Formation of Dental Caries and Methods of Using the Same” (priority 2014, published 2016).

Assays:
iSRCR1 = target: T1, iSRCR1 (Homo sapiens, UniProt Q9UGM3); assay: SPR binding of analytes to immobilized iSRCR1 (CM5 chip, 1:1 Langmuir); details: substance alone over CM5 chip
T1 construct: strongly proves that a single SRCR domain contains the adherence sites for AgI/II and SspB; made in house; host or cells: Drosophila expression system
T1 sequence (Q9UGM3 102-202 limits assumed): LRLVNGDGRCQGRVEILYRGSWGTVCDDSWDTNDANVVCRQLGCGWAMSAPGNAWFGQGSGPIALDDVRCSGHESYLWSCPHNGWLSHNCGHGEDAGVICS
Experimental: (§1) Real time binding analyses of the SRCR domains with AgI/II fragments were carried out using the BIAcore 2000 system. […] Self association of iSRCR1 or iSRCR123 (at 2 μM) were also determined in a similar manner as described above. Finally to determine the effect of calcium SPR analysis was carried out by dialyzing the analytes and ligands in binding buffer devoid of CaCl2.
(§2) In addition, the SRCR holding two distinct surfaces compounded the elucidation of individual kinetics, and presently there are no modeling protocols available to determine the individual affinities for such a system, therefore for simplicity we have utilized a single site 1:1 Langmuir model. All experiments were carried out in triplicates and the kinetics of the association (KA) and dissociation (KD) rate constants were deduced using the 1:1 Langmuir Kinetic model on the BIA-Evaluation software. The concentration (C in μM) of analyte (FL^AgI/II or FL^SspB at 2 μM) that adhered to the immobilized ligand (iSRCR1, iSRCR123) within the flow cell was calculated using the formula C=(RU/MW)×(1/V), where RU is resonance unit (1 RU=1 pg of bound protein), MW is molecular weight of analyte and V is volume of flow cell (1.2×10^−10 L).

iSRCR123 = target: T2, iSRCR123 (Homo sapiens, UniProt Q9UGM3); assay: SPR binding of analytes to immobilized iSRCR123 (CM5 chip, 1:1 Langmuir); details: substance alone over CM5 chip
T2 construct: multiple SRCR domains have better adherence capability compared to that of a single SRCR domain; made in house; host or cells: Drosophila expression system
T2 sequence (Q9UGM3 102-463 limits assumed): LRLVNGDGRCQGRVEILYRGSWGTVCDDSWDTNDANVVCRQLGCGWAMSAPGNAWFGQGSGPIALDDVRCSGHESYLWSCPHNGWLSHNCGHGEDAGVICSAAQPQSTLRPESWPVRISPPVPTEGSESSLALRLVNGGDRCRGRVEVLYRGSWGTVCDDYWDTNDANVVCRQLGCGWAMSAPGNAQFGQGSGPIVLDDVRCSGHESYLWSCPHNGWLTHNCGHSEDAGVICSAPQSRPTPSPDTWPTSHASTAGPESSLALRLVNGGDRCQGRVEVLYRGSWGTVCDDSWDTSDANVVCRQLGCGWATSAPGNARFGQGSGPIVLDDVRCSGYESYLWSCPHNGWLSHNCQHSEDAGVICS
Experimental: as §1, §2

SAG = target: T3, SAG (Homo sapiens, UniProt Q9UGM3); assay: SPR binding of analytes to immobilized SAG; details: 2 mM, control experiment
T3 construct: from tissue; host or cells: saliva (purified SAG, gift)
T3 sequence (Q9UGM3 20-2413): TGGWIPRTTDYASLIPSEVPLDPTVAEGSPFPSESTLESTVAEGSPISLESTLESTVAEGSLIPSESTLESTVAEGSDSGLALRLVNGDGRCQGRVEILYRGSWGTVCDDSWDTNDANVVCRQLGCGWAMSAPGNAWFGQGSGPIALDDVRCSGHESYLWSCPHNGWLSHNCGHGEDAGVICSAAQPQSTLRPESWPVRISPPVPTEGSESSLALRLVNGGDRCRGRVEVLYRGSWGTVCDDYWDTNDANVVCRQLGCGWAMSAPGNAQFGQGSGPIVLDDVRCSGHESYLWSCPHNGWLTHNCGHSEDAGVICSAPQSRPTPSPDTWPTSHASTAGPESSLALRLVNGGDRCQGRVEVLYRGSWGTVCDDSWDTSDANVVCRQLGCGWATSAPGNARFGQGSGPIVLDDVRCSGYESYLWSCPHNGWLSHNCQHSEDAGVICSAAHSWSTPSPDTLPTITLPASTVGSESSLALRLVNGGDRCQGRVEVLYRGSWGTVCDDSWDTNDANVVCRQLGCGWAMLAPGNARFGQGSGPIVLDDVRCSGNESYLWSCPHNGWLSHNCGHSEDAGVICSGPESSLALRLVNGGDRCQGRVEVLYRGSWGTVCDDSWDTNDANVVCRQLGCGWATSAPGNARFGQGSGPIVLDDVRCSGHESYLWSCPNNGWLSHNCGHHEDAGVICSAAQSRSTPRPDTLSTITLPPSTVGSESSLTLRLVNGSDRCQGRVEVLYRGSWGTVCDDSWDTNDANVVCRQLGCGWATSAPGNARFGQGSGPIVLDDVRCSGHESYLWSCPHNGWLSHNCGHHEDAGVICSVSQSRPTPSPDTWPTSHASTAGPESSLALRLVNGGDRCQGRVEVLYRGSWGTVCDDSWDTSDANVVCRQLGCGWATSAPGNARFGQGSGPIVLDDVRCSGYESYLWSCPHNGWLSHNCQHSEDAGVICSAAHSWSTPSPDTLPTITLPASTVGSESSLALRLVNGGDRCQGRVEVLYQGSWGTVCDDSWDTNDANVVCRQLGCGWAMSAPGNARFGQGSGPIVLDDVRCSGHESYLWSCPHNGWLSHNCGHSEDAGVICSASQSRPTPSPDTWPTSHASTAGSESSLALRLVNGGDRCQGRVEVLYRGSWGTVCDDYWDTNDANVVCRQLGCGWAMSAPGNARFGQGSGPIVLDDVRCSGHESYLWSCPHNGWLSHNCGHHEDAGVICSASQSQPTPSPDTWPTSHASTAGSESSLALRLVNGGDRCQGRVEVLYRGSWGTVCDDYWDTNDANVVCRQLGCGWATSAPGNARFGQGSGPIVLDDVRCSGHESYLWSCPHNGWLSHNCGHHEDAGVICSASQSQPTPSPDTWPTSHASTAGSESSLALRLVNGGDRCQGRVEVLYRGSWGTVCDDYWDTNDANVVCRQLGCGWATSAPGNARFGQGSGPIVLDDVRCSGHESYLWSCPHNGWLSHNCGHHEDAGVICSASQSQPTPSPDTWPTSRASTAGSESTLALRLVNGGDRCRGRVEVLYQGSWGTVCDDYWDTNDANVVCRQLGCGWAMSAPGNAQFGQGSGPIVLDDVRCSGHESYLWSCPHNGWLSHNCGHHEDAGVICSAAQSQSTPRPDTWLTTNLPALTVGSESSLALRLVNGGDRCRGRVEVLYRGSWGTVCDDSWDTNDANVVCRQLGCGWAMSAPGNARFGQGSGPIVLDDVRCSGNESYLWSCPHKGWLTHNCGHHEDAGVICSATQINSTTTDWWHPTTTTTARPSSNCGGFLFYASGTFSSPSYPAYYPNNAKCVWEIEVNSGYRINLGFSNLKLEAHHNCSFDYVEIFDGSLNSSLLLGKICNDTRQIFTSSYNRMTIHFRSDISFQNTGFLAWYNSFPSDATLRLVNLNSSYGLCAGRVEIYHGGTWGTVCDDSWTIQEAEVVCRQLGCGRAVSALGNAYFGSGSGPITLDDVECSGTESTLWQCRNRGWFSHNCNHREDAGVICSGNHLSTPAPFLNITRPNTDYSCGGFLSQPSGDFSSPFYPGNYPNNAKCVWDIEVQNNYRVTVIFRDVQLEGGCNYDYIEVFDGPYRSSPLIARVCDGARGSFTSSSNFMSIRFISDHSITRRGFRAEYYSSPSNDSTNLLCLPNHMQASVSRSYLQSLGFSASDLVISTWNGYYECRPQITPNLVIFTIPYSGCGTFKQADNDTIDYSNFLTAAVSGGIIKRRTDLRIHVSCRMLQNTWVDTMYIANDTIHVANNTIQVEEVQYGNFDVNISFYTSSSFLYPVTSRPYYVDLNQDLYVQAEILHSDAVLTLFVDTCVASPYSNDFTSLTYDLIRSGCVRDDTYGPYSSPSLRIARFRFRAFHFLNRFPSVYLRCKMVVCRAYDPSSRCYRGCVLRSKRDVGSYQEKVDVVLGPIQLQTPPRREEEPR
Experimental: as §1, §2

[1] = test system: adhesion of AgI/II of S. mutans to iSRCR1; assay: Adherence/inhibition SPR: AgI/II fragments on immobilized iSRCR1; type: binding
Experimental: (§3) Carbohydrates Galβ1-3-GalNac and Mannose (identified from glycan profile analysis) at different concentrations (0.010, 0.050, 0.1, 0.5 and 1 mM) were incubated with 2 μM of each FL, A3VP1 and C123 of AgI/II and SspB and the interaction with immobilized iSRCR1 and iSRCR123 with running buffer containing 20 mM HEPES, 150 mM NaCl and 2.5 mM CaCl2, pH 7.4 at 25° C. and with flow rate of 20 μl/min was analyzed. Direct adherence of these carbohydrates alone served as the control and all calculations were carried out using the BIAevaluation software. Using the same protocol above at varying concentrations the effect of SRCRP2 peptide on the adherence inhibition was assessed.

[2] = target: T4, adhesion of SspB of S. gordonii to iSRCR1 (Streptococcus gordonii, UniProt A8AUS1); type: binding; details: 1.0 mM; 2 μM protein
T4 construct: made in house; host or cells: pET23d vector
Experimental: as §3

[3] = test system: adhesion of SspB of S. gordonii to iSRCR1; type: binding; details: lower concentrations 0.010 mM-0.500 mM
Experimental: as §3

[4] = test system: adhesion of AgI/II of S. mutans to iSRCR123; assay: Adherence/inhibition SPR: AgI/II fragments on immobilized iSRCR123; type: binding
Experimental: as §3

[5] = test system: adhesion of SspB of S. gordonii to iSRCR123; assay: Adherence/inhibition SPR: SspB fragments on immobilized iSRCR123; type: binding
Experimental: as §3

[6] = target: T5, AgI/II adherence to immobilized salivary agglutinin (Streptococcus mutans serotype c, UniProt P23504); assay: SPR inhibition of SAG adherence of FL surface protein (Example 2); type: binding, S. mutans; details: 2 mM
T5 construct: Recombinant full length (FL) constructs of surface proteins (homologs of AgI/II) AgI/II, SspB, Pas; made in house
Experimental: (§4) Inhibition of SAG adherence to AgI/II, SspB, Pas, along with glucan binding protein C (GbpC) and collagen binding protein (rcnM) by Galβ1-3GalNac (core-1) was determined as is described in Example 1 and as described below.
(§5) Recombinant full length (FL) constructs of surface proteins (homologs of AgI/II) AgI/II, SspB, Pas, along with GbpC (Glucan binding protein C) and rcnM (collagen binding protein) were incubated with various concentrations (0.010 mM to 2 mM) of Galβ1-3GalNac at room temperature and their binding interaction with immobilized salivary agglutinin on a CM5 sensor chip was determined.

[7] = target: T6, SspB adherence to immobilized salivary agglutinin (Streptococcus gordonii, UniProt A8AUS1); assay: as above; type: binding, S. gordonii; details: 2 mM
T6 construct: (39-1433) (NotI) Reverse; made in house; host or cells: pET23d vector
T6 sequence (A8AUS1 39-1433): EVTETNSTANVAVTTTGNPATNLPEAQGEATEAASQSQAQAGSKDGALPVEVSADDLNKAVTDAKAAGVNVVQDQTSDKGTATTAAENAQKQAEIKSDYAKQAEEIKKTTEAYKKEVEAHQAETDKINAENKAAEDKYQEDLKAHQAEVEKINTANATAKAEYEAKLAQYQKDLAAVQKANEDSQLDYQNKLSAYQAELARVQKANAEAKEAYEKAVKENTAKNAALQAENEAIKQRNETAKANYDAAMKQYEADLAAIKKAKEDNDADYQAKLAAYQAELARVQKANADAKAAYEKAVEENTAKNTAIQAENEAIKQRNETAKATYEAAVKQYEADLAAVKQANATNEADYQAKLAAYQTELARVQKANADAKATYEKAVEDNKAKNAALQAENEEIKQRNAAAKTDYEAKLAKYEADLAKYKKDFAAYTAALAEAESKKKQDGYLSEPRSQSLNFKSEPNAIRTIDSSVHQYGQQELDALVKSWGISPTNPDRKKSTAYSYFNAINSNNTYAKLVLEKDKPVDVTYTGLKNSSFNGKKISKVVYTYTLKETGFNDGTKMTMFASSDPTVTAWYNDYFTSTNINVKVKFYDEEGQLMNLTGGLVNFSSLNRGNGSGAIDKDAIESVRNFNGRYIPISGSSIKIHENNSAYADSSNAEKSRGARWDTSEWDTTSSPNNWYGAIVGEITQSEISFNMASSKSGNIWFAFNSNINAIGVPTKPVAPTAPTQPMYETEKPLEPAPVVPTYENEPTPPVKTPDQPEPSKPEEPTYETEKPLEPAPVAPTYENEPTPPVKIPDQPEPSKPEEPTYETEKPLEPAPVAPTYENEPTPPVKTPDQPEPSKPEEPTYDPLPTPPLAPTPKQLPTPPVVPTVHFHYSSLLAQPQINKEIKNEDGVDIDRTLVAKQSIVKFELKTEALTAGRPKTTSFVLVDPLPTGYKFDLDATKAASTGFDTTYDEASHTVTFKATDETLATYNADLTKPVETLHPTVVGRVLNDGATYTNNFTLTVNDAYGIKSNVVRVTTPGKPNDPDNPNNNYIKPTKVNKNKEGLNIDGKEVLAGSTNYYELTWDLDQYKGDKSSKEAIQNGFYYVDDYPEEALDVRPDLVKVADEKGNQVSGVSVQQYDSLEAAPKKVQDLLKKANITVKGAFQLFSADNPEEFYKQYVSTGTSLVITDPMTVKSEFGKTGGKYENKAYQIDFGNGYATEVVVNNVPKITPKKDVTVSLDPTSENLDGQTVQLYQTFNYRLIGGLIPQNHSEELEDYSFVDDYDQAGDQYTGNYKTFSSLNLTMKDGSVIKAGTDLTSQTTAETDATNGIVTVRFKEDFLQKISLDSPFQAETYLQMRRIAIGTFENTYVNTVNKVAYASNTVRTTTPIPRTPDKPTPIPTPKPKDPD
Experimental: as §4, §5

[8] = test system: GbpC (Glucan binding protein C) adherence to immobilized salivary agglutinin; assay: as above; design: species or system S. mutans; details: 2 mM
Experimental: as §4, §5

[9] = test system: rcnM (collagen binding protein) adherence to immobilized salivary agglutinin; assay: as above; details: 2 mM
Experimental: as §4, §5

[10] = target: T7, Pas adherence to immobilized salivary agglutinin (Streptococcus intermedius, UniProt Q9KW51); assay: as above; type: binding, S. intermedius; details: 2 mM
T7 construct: Recombinant full length (FL) constructs of surface proteins (homologs of AgI/II) AgI/II, SspB, Pas; made in house
Experimental: as §4, §5

[11] = lower concentrations 0.010 mM-0.500 mM

## CC(=O)N[C@H]1C(O)O[C@H](CO)[C@H](O)[C@@H]1O[C@@H]1O[C@H](CO)[C@H](O)[C@H](O)[C@H]1O (stereo partly drawn) [Galβ1-3-GalNac]
iSRCR1
  direct binding to immobilized iSRCR1 (in words): did not have any interactions
iSRCR123
  direct binding to immobilized iSRCR123 (in words): did not have any interactions
SAG
  direct adherence to SAG (in words): did not show direct adherence
[1]; 1.0 mM, 2 μM protein
  inhibition of adhesion of A3VP1^AgI/II to iSRCR1: 79%
  inhibition of adhesion of C123^AgI/II to iSRCR1: 73%
  inhibition of adhesion of FL^AgI/II to iSRCR1: 85%
[1]; [11]
  effect on adhesion of all AgI/II fragments with iSRCR1 (in words): enhanced the adhesion
[2]
  inhibition of adhesion of A3VP1^SspB to iSRCR1: 61%
  inhibition of adhesion of C123^SspB to iSRCR1: 32%
  inhibition of adhesion of FL^SspB to iSRCR1: 64%
[3]
  effect on adhesion of all SspB fragments with iSRCR1 (in words): enhanced the adhesion
[4]; 1.0 mM, 2 μM protein
  inhibition of adhesion of A3VP1^AgI/II to iSRCR123: 75%
  inhibition of adhesion of C123^AgI/II to iSRCR123: 47%
  inhibition of adhesion of FL^AgI/II to iSRCR123: 73%
[4]; [11]
  effect on adhesion of all AgI/II fragments with iSRCR123 (in words): enhanced the adhesion
[5]; 1.0 mM, 2 μM protein
  inhibition of adhesion of A3VP1^SspB to iSRCR123: 60%
  inhibition of adhesion of C123^SspB to iSRCR123: 40%
  inhibition of adhesion of FL^SspB to iSRCR123: 37%
[5]; [11]
  effect on adhesion of all SspB fragments with iSRCR123 (in words): enhanced the adhesion
[6]
  inhibition of SAG adherence of AgI/II: 94%
[7]
  inhibition of SAG adherence of SspB: 65%
[8]
  inhibition of SAG adherence of GBPC: 72%
[9]
  inhibition of SAG adherence of rcnM: 69%
[10]
  inhibition of SAG adherence of Pas: 28%
